Laboratory results as given in patent US20110071201A1, “PHENOL-CONTAINING AZOLE COMPOSITIONS FOR THE PROTECTION OF INDUSTRIAL MATERIALS” (LANXESS DEUTSCHLAND GMBH, priority 2009, published 2011).

What was measured:
Coriolus versicolor = assay: Agar hyphae growth inhibition test (MIC) with Kull synergism index; format: cell-based; conditions: Trametes versicolor, 168 h; malt extract/peptone nutrient agar, 26° C., about 1 week; concentration at which radial hyphae growth was suppressed completely; read-out: MIC value against Coriolus versicolor
Procedure: Mycelium pieces were punched out of a colony of the wood-destroying organism Coriolus versicolor and incubated on a malt extract/peptone-containing nutrient agar at 26° C. The growth of the hyphae with and without active compound and 6,6′-di-tert-butyl-2,2′-methylenedi-p-cresol was compared. The minimum inhibitory concentration (MIC) stated was the concentration at which the radial hyphae growth was suppressed completely (incubation time: about 1 week, independently of the fungal growth of the comparative sample without active compound).
The synergism was determined by the method described by Kull et al. (F. C. Kull, P. C. Eismann, H. D. Sylvestrowicz, R. L. Mayer, Applied Microbiology 1961, 9, 538-541). The following relationships apply:
SI=1 means additivity SI>1 means antagonism SI<1 means synergism Qa=concentration of substance A which is the MIC Qb=concentration of substance B which is the MIC QA=concentration of substance A in the concentration of A/B at which microbial growth is suppressed QB=concentration of substance B in the concentration of A/B at which microbial growth is suppressed

[1] = Solubility in water and vapour pressure; format: physicochemical
Lentinus tigrinus = assay: Agar hyphae growth inhibition test (MIC) with Kull synergism index; format: cell-based; conditions: 168 h, malt extract/peptone nutrient agar, 26° C., about 1 week, concentration at which radial hyphae growth was suppressed completely, read-out: MIC value against Lentinus tigrinus

SMILES: Cc1cc(Cc2cc(C)cc(C(C)(C)C)c2O)c(O)c(C(C)(C)C)c1 [phenol I, 6,6′-di-tert-butyl-2,2′-methylenedi-p-cresol]
- MIC (Coriolus versicolor): > 30 µg/mL
- solubility in water [1]: < 1 ppm
- vapour pressure ([1]; at 50° C.): 0.0001 hPa

SMILES: CC(C)(C)C(O)(CCc1ccc(Cl)cc1)Cn1cncn1 (centres unmarked) [tebuconazole, reference compound]
- MIC (Coriolus versicolor): 1 µg/mL
- MIC (Lentinus tigrinus): 0.3 µg/mL
